Structures are written as SMILES.

As usually defined, the melting point is the temperature, or range, at which the solid turns liquid.

The compound `CC(C)Nc1cccnc1N1CCN(C(=O)c2ccc(C(=O)N(CCO)CCO)cn2)CC1` had a melting point of 130 to 132 °C.

`COc1cc(Cc2cnc(N)nc2N)c2c(c1OC)OC(C)CC2O` (stereo not drawn) came in with a melting point of 201 to 203 °C.

`OC(CCl)CN1CCN(C(c2ccccc2)c2ccccc2)CC1` (stereo not drawn): the melting point was in the range of 114 to 116 °C.

`Cc1cccc2sc(Sc3ccc4c(c3)CC[C@H]3N(C)C(=O)CC[C@]43C)nc12` returned a melting point of 134 to 142 °C.

Compound `C[C@@H](Cn1ncc2ccc3c(c21)C[C@@H](OCC(N)=O)CO3)N=[N+]=[N-]` displayed a melting point of 94 to 97 °C.

`CC(=O)c1cccc(C=CC(=O)N2CCc3c([nH]c4ccccc34)C2c2ccc3c(c2)OCO3)c1` (stereo not drawn): the melting point amounted to 191 °C.

`Cc1ccc(CNC(=S)N2CCc3c([nH]c4ccccc34)C2c2ccc3c(c2)OCO3)cc1C` (stereo not drawn) displayed a melting point of 138 to 142 °C.

As to `C=CCNc1nc(NCC=C)c2cc(Cl)ccc2n1`, the melting point is 78 to 79 °C.

Regarding `O=C(Nc1ccc(Oc2ccnc(NC3CCC3)n2)c2ccccc12)c1cc(F)cc(N2CCCCC2)c1`, the melting point was 112 to 114 °C.

The compound `C#CCNc1ccc(C(C)=O)cc1` registered a melting point of 97 to 100 °C.

Compound `CCCc1nc2c(N)nc3ccccc3c2n1CCCC(C)N(OC)C(=O)NC1CCCC1` (stereo not drawn) showed a melting point of 182 to 184 °C.

For `COc1ccc(O)c(C(=O)Nc2cc(Cl)cc(Cl)c2)c1`, the melting point was 230 to 232 °C.

The compound `CCCCOCCOc1ccc(-c2ccc(N3CC=CC3)c(C=O)c2)cc1` came in with a melting point of 79 to 81 °C.

Compound `O=C(O)Cn1c(=O)c(=O)[nH]c2ccc3ccc(-n4cccc4CNC(=O)c4ccccc4)cc3c21` displayed a melting point of more than 180 °C.

For the compound `COC(=O)[C@H]1OC(OC(=O)c2ccc(/C=C(\C)c3ccc4c(c3)C(C)(C)CCC4(C)C)cc2)[C@H](OC(C)=O)[C@@H](OC(C)=O)[C@@H]1OC(C)=O` (stereo partly drawn), the melting point was 161 °C.

The compound `CN(C)c1ccc(/C=C/C(=O)CC(=O)/C=C/c2ccc3cc[nH]c3c2)cc1` returned a melting point of 112 to 119 °C.

In the case of `Cc1c(C(=O)Nc2ccc(N3CCN(CCO)CC3)c(C#N)c2)cnn1-c1ccc(Cl)c(Cl)c1`, the melting point fell in the range of 195 to 197 °C.

As for `COC(=O)C=C1CC(=O)N(c2ccccc2)c2cc(Cl)ccc2N1`, the melting point lay in the range of 199 to 201 °C.

In turn, `Cc1ccc(S(=O)(=O)n2cc(C[C@H]3CCCN3C)c3cc(Br)ccc32)cc1` came in with a melting point of 98 to 104 °C.

In turn, `CCNc1nc(NC2CC2)cc(SC)n1` returned a melting point of 75 to 76 °C.

Turning to `O=C(Sc1ccc(O)cc1)c1cccc(C(=O)Sc2ccc(O)cc2)c1`, the melting point fell in the range of 218 to 221 °C.

In the case of `Cn1c(Sc2ccc(C(=O)OCC(C)(C)C)c(Cl)c2)n[nH]c1=O`, the melting point came to 138 °C.

For the compound `CC(C)c1ccc(NC(=O)OC(C)(C)C)c(N)c1`, the melting point fell in the range of 100 to 101 °C.

`O=C(O)Cc1ccccc1N1CCOCC1` gave a melting point of 128 °C.

`COc1ccc(CC(N(C)S(=O)(=O)c2ccc(C)cc2)C(C)(C)C(=O)Cl)cc1` (stereo not drawn) returned a melting point of 110 to 111 °C.

`COc1cc(Cl)c2c(=O)c(N3CCCCC3)coc2c1` registered a melting point of 122 to 125 °C.

Consider `CCOC(=O)c1cn(-c2nc(NCc3ccc(OC)cc3)c(F)cc2F)c2c(F)c(F)c(F)c(F)c2c1=O`, for which the melting point lay in the range of 203 to 208 °C.

For the compound `CCO/C(=N/O)C1Cc2cc(C(=O)c3ccccc3F)c(O)c(Cl)c2O1` (stereo not drawn), the melting point is 171 to 172 °C.

With `COC(=O)c1cccc(Cn2c(C(=O)NC(N)=S)cc3cc(C)cc(C)c32)c1`, the melting point is 198 to 199 °C.

Compound `Oc1c(Br)cc(-c2c3ccccc3c(C(F)(F)F)c3sc4ccccc4c23)cc1Br` came in with a melting point of 223 to 225 °C.

In turn, `CCOC(=O)c1cnc2c(c(C)nc3cc(C)nn32)c1NCCCN(C)C` had a melting point of 73 to 75 °C.

On to `CCN1CC(=O)N(c2cc(F)ccc2C)C1=S`, for which the melting point is 98 to 100 °C.

In turn, `N#CCCOc1ccc(Oc2ccccc2)cc1` returned a melting point of 81 to 83 °C.

Compound `CC(=O)C=Cc1c(-c2ccccc2)nn2ccccc12` registered a melting point of 134 to 136 °C.

The compound `COC(=O)CCc1cc2nc(C)ccc2n1S(=O)(=O)c1ccccc1` came in with a melting point of 98 to 115 °C.

`Cc1cc(C)cc(C(=O)NC(C#N)n2cccn2)c1` (stereo not drawn): the melting point was 180 to 183 °C.

With `COc1ccc2c(c1Cl)CCCC2=O`, the melting point was in the range of 130 to 131 °C.

As for `CS(=O)(=O)CCN1CCC2(CC1)CC(=O)c1cc(NS(C)(=O)=O)ccc1O2`, the melting point was in the range of 250 to 251 °C.

In turn, `O=C(c1ccccc1)C(OCCN1CCCCC1)c1ccccc1` (stereo not drawn) gave a melting point of 53 °C.

For `Nc1cccc(Cc2cc(O)ccc2O)c1`, the melting point was in the range of 151 to 152 °C.

In turn, `CCOC(=O)c1sc(N2CCN(Cc3ccccc3)C2=O)nc1C` registered a melting point of 122 to 124 °C.

In turn, `CCC1(CCCCN2CCN(c3ccc(Cl)cc3)CC2)C(=O)Nc2c(Cl)cc(Cl)cc21` (stereo not drawn) showed a melting point of 152 to 154 °C.

On to `Cc1ccsc1-c1nc2cc([N+](=O)[O-])ccc2o1`, for which the melting point was 174 to 176 °C.

As for `CSc1nc2ccc(CCc3nc4cc(C)ccn4c3C)cc2o1`, the melting point lay within 106 to 107 °C.

`CCCCc1cc(C(=O)O)ncc1C(=O)O` had a melting point of 239 °C.

Take `O=C1Nc2cc(F)ccc2C1c1ncnc2c1cnn2C1CCCC1` (stereo not drawn): the melting point was in the range of 230 to 233 °C.

For the compound `CC(=O)c1cccc2nc[nH]c12`, the melting point lay within 220 to 223 °C.

In turn, `Cc1cccc(NC(=O)NC2N=C(C3CCCC3)c3ccccc3N(Cc3ncccc3C)C2=O)c1` (racemic) displayed a melting point of 198 to 199 °C.

`N#Cc1c(OCC2CO2)cccc1[N+](=O)[O-]` (stereo not drawn) returned a melting point of 131 to 135 °C.

`COc1ccc(N2CCN(c3c(C)c(C)c4c(c3C)C(N3CCc5ccccc5C3)C(C)(C)O4)CC2)cc1` (stereo not drawn): the melting point is 144 to 145 °C.

As to `c1cc(CC2CCNC3CCCN23)ccc1CC1CCNC2CCCN12` (stereo not drawn), the melting point stood at 110 °C.

Turning to `COc1cccc(C(O)CNCCN)c1` (stereo not drawn), the melting point was 50 °C.

Regarding `CC(Cl)c1nc2c(C(F)(F)F)cccc2c(O)c1C(=O)Nc1nccs1` (stereo not drawn), the melting point was 190 to 192 °C.

For the compound `N=C(NC(=O)OCc1ccccc1)N(C(=O)OCc1ccccc1)C1CCC(CCN2CCN(c3ccccc3)CC2)CC1` (stereo not drawn), the melting point fell in the range of 136 to 137 °C.

`NC(=O)Nc1c(C(O)(C(F)(F)F)C(F)(F)F)ccc2c1CCCC2` yielded a melting point of 157 to 159 °C.

In the case of `CC1(C)OC(=O)Nc2ccc(/C(=C/C(N)=O)c3ccccc3)cc21`, the melting point was 219 to 220 °C.

With `O=c1[nH]c2ccccc2n1CC1CCN(CC(O)COc2ccc(Cl)cc2)C1` (stereo not drawn), the melting point was 129 °C.

Consider `CCOC(=O)C(C)C(=O)Nc1cccc(S)c1` (stereo not drawn), for which the melting point lay in the range of 73 to 75 °C.

In turn, `O=C(NCCCSc1ccncc1)c1ccco1` had a melting point of 98 to 99 °C.

`Cc1c(-c2ccccc2)c(N2CC[C@H](N(C)C)C2)c2oc(-c3cnn(C)c3)nc2c1C#N` yielded a melting point of 214 to 222 °C.

`CCOC=C(C=C(C#N)C#N)CCc1ccc(C(=O)OC)cc1` displayed a melting point of 136 to 137 °C.

`COc1ccc2c(c1CC1CCCC1)CC[N+]([O-])=C2Cc1c(Cl)cncc1Cl` showed a melting point of 176 to 178 °C.

Take `Cc1cccnc1-n1c(=S)nc2c(C)cccn2c1=S`: the melting point fell in the range of 131 to 132 °C.
